Results from patent US11649222B2, “Compounds” (UNIVERSITETET I OSLO, priority 2016, dated 2023).
Where two headings read alike, the source gives them in different places.

Assays:
Type in all cases: cell-based
E. coli 50676002 (NDM-1) = experiment: Checkerboard MIC, Example 26 and meropenem; conditions: for MIC: Escherichia coli
Experimental: (§1) A checkerboard MIC assay was using the broth dilution method according to CLSI guidelines. […] Dilutions to 4 mg/ml was performed by adding+4.75 ml sterile saline to 0.25 ml of the stock solution, and dilutions to 512 μg/ml was performed by adding 10.9 ml MH-broth to the 4 mg/ml solution. Inoculums of bacterial strains as described in Table 4 were prepared by suspending fresh overnight colonies from 5% horse blood agar were to a turbidity of 0.5 McFarland and further diluted to 1×10^6 CFU/ml in MH-broth. Aliquots of 50 μl of MH-broth were added to each well of polystyrene microtiter plates. […] The plates were incubated at 35° C., 16-20 hours.

E. coli 50739822 (NDM-1) = experiment: Checkerboard MIC, Example 26 and meropenem; conditions: for MIC: Escherichia coli
Experimental: as §1

E. coli 50921466 (VIM-1) = experiment: Checkerboard MIC, Example 26 and meropenem; conditions: for MIC: Escherichia coli
Experimental: as §1

E. coli AMA1563 (NDM-5) = experiment: Checkerboard MIC, Example 26 and meropenem; conditions: for MIC: Escherichia coli
Experimental: as §1

E. coli AMA323 (VIM-4) = experiment: Checkerboard MIC, Example 26 and meropenem; conditions: for MIC: Escherichia coli
Experimental: as §1

E. coli AMA817 (NDM-1) = experiment: Checkerboard MIC, Example 26 and meropenem; conditions: for MIC: Escherichia coli
Experimental: as §1

[1] = test system: K. pneumonia 50627996 (NDM-1); experiment: Checkerboard MIC, Example 26 and meropenem; conditions: for MIC: Klebsiella pneumoniae
Experimental: as §1

[2] = test system: K. pneumonia 50690310 (NDM-1); experiment: Checkerboard MIC, Example 26 and meropenem; conditions: for MIC: Klebsiella pneumoniae
Experimental: as §1

[3] = test system: K. pneumonia 50752501 (NDM-1); experiment: Checkerboard MIC, Example 26 and meropenem; conditions: for MIC: Klebsiella pneumoniae
Experimental: as §1

[4] = test system: K. pneumonia 50825040 (NDM-1); experiment: Checkerboard MIC, Example 26 and meropenem; conditions: for MIC: Klebsiella pneumoniae
Experimental: as §1

[5] = test system: K. pneumonia 50877064 (NDM-1); experiment: Checkerboard MIC, Example 26 and meropenem; conditions: for MIC: Klebsiella pneumoniae
Experimental: as §1

[6] = test system: K. pneumonia 50923744 (VIM); experiment: Checkerboard MIC, Example 26 and meropenem; conditions: for MIC: Klebsiella pneumoniae
Experimental: as §1

[7] = test system: K. pneumonia K45-67 (VIM-1); experiment: Checkerboard MIC, Example 26 and meropenem; conditions: for MIC: Klebsiella pneumoniae
Experimental: as §1

[8] = test system: K. pneumonia K46-62 (VIM-1); experiment: Checkerboard MIC, Example 26 and meropenem; conditions: for MIC: Klebsiella pneumoniae
Experimental: as §1

[9] = test system: K. pneumonia K66-45 (NDM-1); experiment: Checkerboard MIC, Example 26 and meropenem; conditions: for MIC: Klebsiella pneumoniae
Experimental: as §1

[10] = test system: Klebsiella pneumoniae harboring NDM-1; experiment: Time-kill study with meropenem
Experimental: Mueller-Hinton broth (MHB) was warmed from fridge temperature cold. […] A sample of Example 26 was dissolved in DMSO.
The 96-well plates were prepared using a multi-channel pipette, adding […] PBS to columns 2-9, or the required number of dilutions needed in the experiment. Each Inoculum was prepared by picking a single colony from the fresh plate that was disperged into 1 mL MHB, the loop was agitated to ensure all the colony comes off the loop. The tube was Vortex mixed, and a 100 μL aliquot was taken from the tube into 9.9 mL of MHB into the media bottle. […] The procedure was repeated for as many samples needed in the study. Aliquots of 5 mL inoculum were transferred to as many media bottles as needed, e.g. 4 mg/L MEM, 4 mg/L MEM+50 μM test substance, 4 mg/L MEM+100 μM test substance. Then […] aliquots were taken from each culture and added to Column 1 on the 96 well plate, e.g. culture 1: 50 μl into A1, […] into B1 etc. for time point 0 h. Then […] MEM was added into each bottle, followed by the required amount of test substance. The bottles were mixed gently to avoid formation of bubbles, and incubated in a secondary container at 37° C. at 180 rpm. Finally, serial dilutions were performed using multi-channel pipette taking 30 μL for column 1, adding to column 2, mixing well, repeating from column 2 to 3 with clean pipette tips.

[11] = read-out: MIC alone, Example 26

CN(C[C@H](O)[C@@H](O)[C@H](O)[C@H](O)CO)C(=O)c1ccc(CN(Cc2ccccn2)Cc2ccccn2)nc1 [Example 26, 6-((bis(pyridin-2-ylmethyl)amino)methyl)-N-methyl-N-((2S,3R,4R,5R)-2,3,4,5,6-pentahydroxyhexyl)nicotinamide]
MIC (E. coli 50676002 (NDM-1); [11]): > 400 µg/mL | MIC in combination, Example 26 (E. coli 50676002 (NDM-1); with meropenem): 12.5 µg/mL | MIC (E. coli 50739822 (NDM-1); [11]): > 400 µg/mL | MIC in combination, Example 26 (E. coli 50739822 (NDM-1); with meropenem): 12.5 µg/mL | MIC (E. coli 50921466 (VIM-1); [11]): > 400 µg/mL | MIC in combination, Example 26 (E. coli 50921466 (VIM-1); with meropenem): 12.5 µg/mL | MIC (E. coli AMA1563 (NDM-5); [11]): > 400 µg/mL | MIC in combination, Example 26 (E. coli AMA1563 (NDM-5); with meropenem): 25 µg/mL | MIC (E. coli AMA323 (VIM-4); [11]): > 400 µg/mL | MIC in combination, Example 26 (E. coli AMA323 (VIM-4); with meropenem): 12.5 µg/mL | MIC (E. coli AMA817 (NDM-1); [11]): > 400 µg/mL | MIC in combination, Example 26 (E. coli AMA817 (NDM-1); with meropenem): 12.5 µg/mL | MIC [1, 11]: > 400 µg/mL | MIC in combination, Example 26 ([1]; with meropenem): 12.5 µg/mL | MIC [2, 11]: > 400 µg/mL | MIC in combination, Example 26 ([2]; with meropenem): 12.5 µg/mL | MIC [3, 11]: > 400 µg/mL | MIC in combination, Example 26 ([3]; with meropenem): 25 µg/mL | MIC [4, 11]: > 400 µg/mL | MIC in combination, Example 26 ([4]; with meropenem): 12.5 µg/mL | MIC [5, 11]: > 400 µg/mL | MIC in combination, Example 26 ([5]; with meropenem): 12.5 µg/mL | MIC [6, 11]: > 400 µg/mL | MIC in combination, Example 26 ([6]; with meropenem): 12.5 µg/mL | MIC [7, 11]: > 400 µg/mL | MIC in combination, Example 26 ([7]; with meropenem): 12.5 µg/mL | MIC [8, 11]: > 400 µg/mL | MIC in combination, Example 26 ([8]; with meropenem): 12.5 µg/mL | MIC [9, 11]: > 400 µg/mL | MIC in combination, Example 26 ([9]; with meropenem): 12.5 µg/mL | time after which CFU drops to below the limit of detection (LOD) ([10]; Example 26 + 4 mg/L meropenem, irrespective of the concentration of Example 26): 5 to 10 h | period CFU stays below LOD ([10]; Example 26 + 4 mg/L meropenem, period of the study): ≥ 30 h

C[C@@H](O)[C@H]1C(=O)N2C(C(=O)O)=C(S[C@@H]3CN[C@H](C(=O)N(C)C)C3)[C@H](C)[C@H]12 [meropenem, reference compound]
MIC (E. coli 50676002 (NDM-1); read-out: MIC alone, Meropenem): 32 µg/mL | MIC in combination, Meropenem (E. coli 50676002 (NDM-1); with Example 26): ≤0.0625 µg/mL | MIC (E. coli 50739822 (NDM-1); read-out: MIC alone, Meropenem): 32 µg/mL | MIC in combination, Meropenem (E. coli 50739822 (NDM-1); with Example 26): ≤0.0625 µg/mL | MIC (E. coli 50921466 (VIM-1); read-out: MIC alone, Meropenem): 2 µg/mL | MIC in combination, Meropenem (E. coli 50921466 (VIM-1); with Example 26): ≤0.0625 µg/mL | MIC (E. coli AMA1563 (NDM-5); read-out: MIC alone, Meropenem): 64 µg/mL | MIC in combination, Meropenem (E. coli AMA1563 (NDM-5); with Example 26): ≤0.0625 µg/mL | MIC (E. coli AMA323 (VIM-4); read-out: MIC alone, Meropenem): 8 µg/mL | MIC in combination, Meropenem (E. coli AMA323 (VIM-4); with Example 26): ≤0.0625 µg/mL | MIC (E. coli AMA817 (NDM-1); read-out: MIC alone, Meropenem): 32 µg/mL | MIC in combination, Meropenem (E. coli AMA817 (NDM-1); with Example 26): ≤0.0625 µg/mL | MIC ([1]; read-out: MIC alone, Meropenem): 64 µg/mL | MIC in combination, Meropenem ([1]; with Example 26): 0.125 µg/mL | MIC ([2]; read-out: MIC alone, Meropenem): 16 µg/mL | MIC in combination, Meropenem ([2]; with Example 26): ≤0.0625 µg/mL | MIC ([3]; read-out: MIC alone, Meropenem): 64 µg/mL | MIC in combination, Meropenem ([3]; with Example 26): ≤0.0625 µg/mL | MIC ([4]; read-out: MIC alone, Meropenem): 64 µg/mL | MIC in combination, Meropenem ([4]; with Example 26): ≤0.0625 µg/mL | MIC ([5]; read-out: MIC alone, Meropenem): 64 µg/mL | MIC in combination, Meropenem ([5]; with Example 26): ≤0.0625 µg/mL | MIC ([6]; read-out: MIC alone, Meropenem): 2 µg/mL | MIC in combination, Meropenem ([6]; with Example 26): ≤0.0625 µg/mL | MIC ([7]; read-out: MIC alone, Meropenem): 32 µg/mL | MIC in combination, Meropenem ([7]; with Example 26): ≤0.0625 µg/mL | MIC ([8]; read-out: MIC alone, Meropenem): 32 µg/mL | MIC in combination, Meropenem ([8]; with Example 26): ≤0.0625 µg/mL | MIC ([9]; read-out: MIC alone, Meropenem): 64 µg/mL | MIC in combination, Meropenem ([9]; with Example 26): ≤0.0625 µg/mL | time after which CFU starts to increase ([10]; 4 mg/L meropenem alone): about 5 hours
